Laboratory results from PubChem BioAssay (NCI).
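48-hour exposure; five concentrations; linearly interpolated endpoints. At the GI50, growth is halved. TGI marks complete inhibition of growth.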

Experiments:
Assay in all cases: NCI anticancer screen, dose series, 48 h
UACC-257 melanoma = tested on: UACC-257 melanoma
CAKI-1 renal = tested on: CAKI-1 renal
EKVX NSCLC = tested on: EKVX NSCLC
OVCAR-3 ovarian = tested on: OVCAR-3 ovarian
M14 melanoma = tested on: M14 melanoma
ACHN renal = tested on: ACHN renal
SK-MEL-28 melanoma = tested on: SK-MEL-28 melanoma
MDA-MB-435 = tested on: MDA-MB-435
DU-145 prostate = tested on: DU-145 prostate
HOP-92 NSCLC = tested on: HOP-92 NSCLC
A549 NSCLC = tested on: A549 NSCLC
IGROV1 ovarian = tested on: IGROV1 ovarian
SK-OV-3 ovarian = tested on: SK-OV-3 ovarian
MDA-MB-231 breast = tested on: MDA-MB-231 breast
NCI/ADR-RES ovarian = tested on: NCI/ADR-RES ovarian
NCI-H522 lung = tested on: NCI-H522 lung
RPMI-8226 leukemia = tested on: RPMI-8226 leukemia
HCC-2998 colon = tested on: HCC-2998 colon
HL-60(TB) leukemia = tested on: HL-60(TB) leukemia
NCI-H460 lung = tested on: NCI-H460 lung
SF-539 CNS = tested on: SF-539 CNS
OVCAR-8 ovarian = tested on: OVCAR-8 ovarian
786-0 renal = tested on: 786-0 renal
KM12 colon = tested on: KM12 colon
HCT-116 colon = tested on: HCT-116 colon
HS 578T breast = tested on: HS 578T breast
HT29 colon = tested on: HT29 colon
SNB-19 CNS = tested on: SNB-19 CNS
COLO 205 colon = tested on: COLO 205 colon
MOLT-4 leukemia = tested on: MOLT-4 leukemia
A498 renal = tested on: A498 renal
MCF7 breast = tested on: MCF7 breast
HOP-62 NSCLC = tested on: HOP-62 NSCLC
SK-MEL-2 melanoma = tested on: SK-MEL-2 melanoma
SR leukemia = tested on: SR leukemia
NCI-H23 lung = tested on: NCI-H23 lung
OVCAR-5 ovarian = tested on: OVCAR-5 ovarian
PC-3 prostate = tested on: PC-3 prostate
CCRF-CEM leukemia = tested on: CCRF-CEM leukemia
SW-620 colon = tested on: SW-620 colon
SN12C renal = tested on: SN12C renal
SNB-75 CNS = tested on: SNB-75 CNS
HCT-15 colon = tested on: HCT-15 colon
UO-31 renal = tested on: UO-31 renal
RXF 393 renal = tested on: RXF 393 renal
UACC-62 melanoma = tested on: UACC-62 melanoma
K-562 leukemia = tested on: K-562 leukemia
BT-549 breast = tested on: BT-549 breast
SK-MEL-5 melanoma = tested on: SK-MEL-5 melanoma
U251 CNS = tested on: U251 CNS
TK-10 renal = tested on: TK-10 renal
SF-295 CNS = tested on: SF-295 CNS
LOX IMVI melanoma = tested on: LOX IMVI melanoma
SF-268 CNS = tested on: SF-268 CNS

## CCCCCC[C@@H](C)NC(=O)c1ccc(Nc2nc3ccccc3c3occc23)cc1
UACC-257 melanoma
  GI50: 2.19 µM
  TGI: 5.66 µM
CAKI-1 renal
  GI50: 2.82 µM
  TGI: 28.3 µM
EKVX NSCLC
  GI50: 1.52 µM
  TGI: 5.04 µM
OVCAR-3 ovarian
  GI50: 2.88 µM
  TGI: > 100 µM
M14 melanoma
  GI50: 2.23 µM
  TGI: 8.3 µM
ACHN renal
  GI50: 24.8 µM
  TGI: 91.7 µM
SK-MEL-28 melanoma
  GI50: 5.5 µM
  TGI: > 100 µM
MDA-MB-435
  GI50: 2.98 µM
  TGI: > 100 µM
DU-145 prostate
  GI50: 1.92 µM
  TGI: 13.2 µM
HOP-92 NSCLC
  GI50: 1.99 µM
  TGI: 7.91 µM
A549 NSCLC
  GI50: 3.17 µM
  TGI: > 100 µM
IGROV1 ovarian
  GI50: 1.61 µM
  TGI: 4.54 µM
SK-OV-3 ovarian
  GI50: 4.25 µM
  TGI: > 100 µM
MDA-MB-231 breast
  GI50: 10.2 µM
  TGI: > 100 µM
NCI/ADR-RES ovarian
  GI50: 2.53 µM
  TGI: > 100 µM
NCI-H522 lung
  GI50: 1.31 µM
  TGI: 4.54 µM
RPMI-8226 leukemia
  GI50: 3.75 µM
  TGI: > 100 µM
HCC-2998 colon
  GI50: 2.51 µM
  TGI: 9.16 µM
HL-60(TB) leukemia
  GI50: 5.14 µM
  TGI: > 100 µM
NCI-H460 lung
  GI50: 3.87 µM
  TGI: > 100 µM
SF-539 CNS
  GI50: 2.07 µM
  TGI: 5.29 µM
OVCAR-8 ovarian
  GI50: 3.08 µM
  TGI: 16.5 µM
786-0 renal
  GI50: 2.9 µM
  TGI: 26.3 µM
KM12 colon
  GI50: 38 µM
  TGI: > 100 µM
HCT-116 colon
  GI50: 1.92 µM
  TGI: 11.3 µM
HS 578T breast
  GI50: 3.79 µM
  TGI: > 100 µM
HT29 colon
  GI50: 2.81 µM
  TGI: > 100 µM
SNB-19 CNS
  GI50: 5.54 µM
  TGI: > 100 µM
COLO 205 colon
  GI50: 3.08 µM
MOLT-4 leukemia
  GI50: 3.71 µM
  TGI: > 100 µM
A498 renal
  GI50: 2.4 µM
  TGI: 7.54 µM
MCF7 breast
  GI50: 7.58 µM
  TGI: > 100 µM
HOP-62 NSCLC
  GI50: 3.28 µM
  TGI: 27.7 µM
SK-MEL-2 melanoma
  GI50: 2.51 µM
  TGI: 7.23 µM
SR leukemia
  GI50: 18.9 µM
  TGI: 45.5 µM
NCI-H23 lung
  GI50: 2.06 µM
  TGI: 6.59 µM
OVCAR-5 ovarian
  GI50: 5.72 µM
  TGI: > 100 µM
PC-3 prostate
  GI50: 3.45 µM
  TGI: > 100 µM
CCRF-CEM leukemia
  GI50: 3.89 µM
  TGI: 15.4 µM
SW-620 colon
  GI50: 3.38 µM
  TGI: > 100 µM
SN12C renal
  GI50: 40.8 µM
  TGI: > 100 µM
SNB-75 CNS
  GI50: 2.25 µM
  TGI: 6.38 µM
HCT-15 colon
  GI50: 8.93 µM
  TGI: > 100 µM
UO-31 renal
  GI50: 2.87 µM
  TGI: 21 µM
RXF 393 renal
  GI50: 3.41 µM
  TGI: 9.84 µM
UACC-62 melanoma
  GI50: 32.8 µM
  TGI: > 100 µM
K-562 leukemia
  GI50: 4.82 µM
  TGI: > 100 µM
BT-549 breast
  GI50: 2.35 µM
  TGI: 7.61 µM
SK-MEL-5 melanoma
  GI50: 1.66 µM
  TGI: 4.01 µM
U251 CNS
  GI50: 38.8 µM
  TGI: > 100 µM
TK-10 renal
  GI50: 18.5 µM
  TGI: 70.2 µM
SF-295 CNS
  GI50: 4.39 µM
  TGI: > 100 µM
LOX IMVI melanoma
  GI50: 19.3 µM
  TGI: 42.4 µM
SF-268 CNS
  GI50: 5.73 µM
  TGI: > 100 µM
